ChEMBL document CHEMBL5230160, “Chemotherapeutics for Toxoplasma gondii: Molecular Biotargets, Binding Modes, and Structure-Activity Relationship Investigations” (J Med Chem, 2021)
≈ marks a conversion by molar mass, not a printed value.

Assays:
Toxoplasma gondii [1] = assay: Antiparasitic activity against Toxoplasma gondii infected in HFF cells by fluorescence based analysis; type: functional, organism-based
[2] = Inhibition of Toxoplasma gondii recombinant ENR in presence of NADH by absorbance based analysis
Toxoplasma gondii [3] = assay: Antiparasitic activity against Toxoplasma gondii tachyzoites; type: functional, organism-based; conditions: Toxoplasma gondii; for EC50: read-out: ED50 (the source's name); for IC50: read-out: IC50
Vero = assay: Cytotoxicity against African green monkey Vero cells assessed as cell growth inhibition by alamar blue assay; type: functional; conditions: Chlorocebus sabaeus, read-out: ED50 (the source's name)
[4] = Inhibition of Toxoplasma gondii FPPS incubated for 30 mins by scintillation counting analysis
Toxoplasma gondii [5] = assay: Antiparasitic activity against Toxoplasma gondii tachyzoites infected in mouse assessed as survival at 10 mg/kg relative to control; type: functional
[6] = Selectivity index, ratio of IC50 for cytotoxicity against human HeLa cells to IC50 for antiparasitic activity against Toxoplasma gondii tachyzoites infected in human HeLa cells; type: toxicity, cell-based; conditions: for selectivity ratio: read-out: Ratio IC50
HeLa = assay: Cytotoxicity against human HeLa cells assessed as cell growth inhibition measured after 24 hrs by MTT assay; type: functional, cell-based
Toxoplasma gondii [7] = assay: Antiparasitic activity against Toxoplasma gondii tachyzoites infected in human HeLa cells measured after 24 hrs by MTT assay; type: functional, organism-based
[8] = Inhibition of Toxoplasma gondii recombinant PNP

CCCCc1cn(Cc2ccc(Oc3ccc(Cl)cc3O)c(Cl)c2)nn1
IC50 (Toxoplasma gondii [1]): 250 nM
IC50 [2]: 43 nM

O=P(O)(O)C(CSCCOc1cccc(Oc2ccccc2)c1)P(=O)(O)O
EC50 (Toxoplasma gondii [3]): 670 nM
EC50 (Vero): > 100000 nM

CCCCCCCCCCNCC(O)(P(=O)(O)O)P(=O)(O)O
IC50 [4]: 125 nM

Oc1cc(Cl)ccc1Oc1ccc(NCc2ccccc2)cc1Cl
IC50 (Toxoplasma gondii [1]): 200 nM
IC50 [2]: 13 nM

Cc1occc1C(=O)NN=C(S)Nc1ccccc1
IC50 (Toxoplasma gondii [3]): 59 µg/mL

Oc1cc(Cl)ccc1Oc1ccc(CNc2ccccc2)cc1Cl
IC50 (Toxoplasma gondii [1]): > 10000 nM
IC50 [2]: 31 nM

N#Cc1ccccc1CNc1ccc(Oc2ccc(Cl)cc2O)c(Cl)c1
IC50 (Toxoplasma gondii [1]): > 10000 nM
IC50 [2]: 16 nM

N#CSCCOc1ccc2ccccc2c1
EC50 (Toxoplasma gondii [3]): 3620 nM
EC50 (Vero): > 100000 nM

Cc1cc(-n2c(=O)[nH]c(=O)n(C)c2=O)ccc1Oc1ccc(SC(F)(F)F)cc1 [TOLTRAZURIL]
IC50 (Toxoplasma gondii [3]): 940 nM
survival at 10 mg/kg (Toxoplasma gondii [5]): 100%

N#CSCCOc1ccc(Oc2cccc(C(F)(F)F)c2)cc1
EC50 (Toxoplasma gondii [3]): 1660 nM
EC50 (Vero): > 50000 nM

N#CSCCOc1ccc(Oc2cccc(Oc3ccccc3Cl)c2)cc1
EC50 (Toxoplasma gondii [3]): 2130 nM
EC50 (Vero): > 50000 nM

COc1cc(-n2cc(/C=C3/C[C@@]4(C)[C@H](CC[C@]5(C)[C@@H]4CC=C4[C@@H]6[C@@H](C)[C@H](C)CC[C@]6(C(=O)O)CC[C@]45C)C(C)(C)C3=O)nn2)cc(OC)c1OC
selectivity ratio [6]: 1.17
IC50 (HeLa; Homo sapiens, HeLa, 24 h): 354000 nM
IC50 (Toxoplasma gondii [7]; Toxoplasma gondii, HeLa, 24 h): 301000 nM

CCCCCCNCC(O)(P(=O)(O)O)P(=O)(O)O
IC50 [4]: 51 nM

N#CSCCOc1cccc2ccccc12
EC50 (Toxoplasma gondii [3]): 3130 nM
EC50 (Vero): > 50000 nM

O=P(O)(O)C(CNCCOc1cccc(Oc2ccccc2)c1)P(=O)(O)O
EC50 (Toxoplasma gondii [3]): 2400 nM
EC50 (Vero): > 50000 nM

Cc1nnsc1C(=O)NNC(=S)Nc1ccc(F)cc1F
IC50 (Toxoplasma gondii [3]): 92.3 µg/mL

CCCc1ccc(Oc2ccc(N)cc2Cl)c(O)c1
IC50 (Toxoplasma gondii [1]): 6000 nM
IC50 [2]: < 20 nM

S=c1[nH]nc(-c2cccs2)[nH]1
IC50 [8]: 194000 nM

CCCCCCCCCCNCC(P(=O)(O)O)P(=O)(O)O
IC50 [4]: 68 nM

CCCCCCCCCCCCCCNCC(P(=O)(O)O)P(=O)(O)O
IC50 [4]: 292 nM

O=C(NNC(=S)Nc1ccc(F)cc1)c1cccs1
IC50 (Toxoplasma gondii [3]): 33.2 µg/mL

N#CSCCOc1ccc(Oc2ccc(C(F)(F)F)cc2)cc1
EC50 (Toxoplasma gondii [3]): 1860 nM
EC50 (Vero): > 50000 nM

CCCCCCCCCCCNCC(P(=O)(O)O)P(=O)(O)O
IC50 [4]: 868 nM

Oc1cc(Cl)ccc1Oc1ccc(Cn2ccnn2)cc1Cl
IC50 (Toxoplasma gondii [1]): 250 nM
IC50 [2]: 26 nM

N#CSCCOc1ccc(Oc2ccccn2)cc1
EC50 (Toxoplasma gondii [3]): > 10000 nM
EC50 (Vero): > 200000 nM

Cc1nnsc1C(=O)NNC(=S)Nc1ccccc1Br
IC50 (Toxoplasma gondii [3]): 74.9 µg/mL

CCCCCCCCCCCCNCC(P(=O)(O)O)P(=O)(O)O
IC50 [4]: 93 nM

N#Cc1ccc(Oc2ccc(Cl)cc2O)c(Cl)c1
IC50 [2]: 24 nM

N#CSCCOc1ccc(Oc2cccc3ccccc23)cc1
EC50 (Toxoplasma gondii [3]): 2870 nM

N#CC(c1ccc(Cl)cc1)c1c(Cl)cc(-n2ncc(=O)[nH]c2=O)cc1Cl (configuration not stated) [DICLAZURIL]
IC50 (Toxoplasma gondii [3]): 6 nM
survival at 10 mg/kg (Toxoplasma gondii [5]): 100%

CCCCCCCCCNCC(F)(P(=O)(O)O)P(=O)(O)O
IC50 [4]: 60 nM

C[C@H]1[C@H](C)CC[C@]2(C(=O)O)CC[C@]3(C)C(=CC[C@@H]4[C@@]5(C)C/C(=C/c6cn(-c7ccccc7Cl)nn6)C(=O)C(C)(C)[C@H]5CC[C@]43C)[C@H]12
selectivity ratio [6]: 1.95
IC50 (HeLa; Homo sapiens, HeLa, 24 h): 468000 nM
IC50 (Toxoplasma gondii [7]; Toxoplasma gondii, HeLa, 24 h): 240000 nM

CCCCCNCC(O)(P(=O)(O)O)P(=O)(O)O
IC50 [4]: 67 nM

CCCCCCCCNCC(F)(P(=O)(O)O)P(=O)(O)O
IC50 [4]: 35 nM

N#CSCCOc1ccc(Oc2ccc3ccccc3c2)cc1
EC50 (Toxoplasma gondii [3]): 2250 nM
EC50 (Vero): 105000 nM

C[C@H]1[C@H](C)CC[C@]2(C(=O)OCCn3cnnc3-c3ccc(F)cc3)CC[C@]3(C)C(=CC[C@@H]4[C@@]5(C)CC[C@H](O)C(C)(C)[C@H]5CC[C@]43C)[C@H]12
selectivity ratio [6]: 1.44
IC50 (HeLa; Homo sapiens, HeLa, 24 h): 88200 nM
IC50 (Toxoplasma gondii [7]; Toxoplasma gondii, HeLa, 24 h): 51400 nM

CCCCCCC[S+](C)CC(P(=O)(O)O)P(=O)(O)O (configuration not stated)
IC50 [4]: 13 nM

C/C(=N\Nc1nc(-c2ccc(Cl)c(Cl)c2)cs1)c1ccc(Nc2nc(N)nc(N)n2)cc1
IC50 (Toxoplasma gondii [3]): 14.9 µg/mL

O=c1[nH]cnc2c([C@@H]3N[C@H](CO)[C@@H](O)[C@H]3O)c[nH]c12 [FORODESINE]
IC50 [8]: 0.37 nM

CCCCCCCCNCC(O)(P(=O)(O)O)P(=O)(O)O
IC50 [4]: 39 nM

CC(=O)c1cc(Oc2ccccc2)ccc1OCCSC#N
EC50 (Vero): 75700 nM

N#CSCCOc1ccc(Oc2cccnc2)cc1
EC50 (Toxoplasma gondii [3]): 3710 nM
EC50 (Vero): 134000 nM

O=[N+]([O-])c1ccc(Oc2ccc(Cl)cc2O)c(Cl)c1
IC50 (Toxoplasma gondii [1]): 4000 nM
IC50 [2]: < 20 nM

O=C(Nc1ccc([N+](=O)[O-])cc1Cl)c1cc(Cl)ccc1O [NICLOSAMIDE]
MIC50 (Toxoplasma gondii [3]): 0.2 µM (≈ 0.0654 µg/mL)

CCCCCCCNCC(O)(P(=O)(O)O)P(=O)(O)O
IC50 [4]: > 1000 nM

CO[C@H]1/C=C/O[C@@]2(C)Oc3c(C)c(O)c4c(O)c(c(/C=N/N5CCN(C6CCCC6)CC5)c(O)c4c3C2=O)NC(=O)/C(C)=C\C=C\[C@H](C)[C@H](O)[C@@H](C)[C@@H](O)[C@@H](C)[C@H](OC(C)=O)[C@@H]1C [RIFAPENTINE]
survival at 10 mg/kg (Toxoplasma gondii [5]): 90%

CCCCCCC[S+]([O-])CC(P(=O)(O)O)P(=O)(O)O (configuration not stated)
IC50 [4]: 9 nM

N#CSCCOc1ccc(Oc2ccncc2)cc1
EC50 (Toxoplasma gondii [3]): 7860 nM
EC50 (Vero): > 200000 nM

N#CSCCOc1ccc(Oc2cccc(Oc3cccc(F)c3)c2)cc1
EC50 (Toxoplasma gondii [3]): 1630 nM
EC50 (Vero): > 50000 nM

CCCc1ccc(Oc2ccc(C#N)cc2Cl)c(O)c1
IC50 (Toxoplasma gondii [1]): 6000 nM
IC50 [2]: < 20 nM

C[C@H]1[C@H](C)CC[C@]2(C(=O)O)CC[C@]3(C)C(=CC[C@@H]4[C@@]5(C)C/C(=C/c6cn(-c7ccccc7Br)nn6)C(=O)C(C)(C)[C@H]5CC[C@]43C)[C@H]12
selectivity ratio [6]: 0.8
IC50 (HeLa; Homo sapiens, HeLa, 24 h): 240000 nM
IC50 (Toxoplasma gondii [7]; Toxoplasma gondii, HeLa, 24 h): 302000 nM

CCCCCCCC[S+]([O-])CC(P(=O)(O)O)P(=O)(O)O (configuration not stated)
IC50 [4]: 16 nM

C[C@H]1[C@H](C)CC[C@]2(C(=O)OCCn3cnnc3-c3ccccc3)CC[C@]3(C)C(=CC[C@@H]4[C@@]5(C)CC[C@H](O)C(C)(C)[C@H]5CC[C@]43C)[C@H]12
selectivity ratio [6]: 1.15
IC50 (HeLa; Homo sapiens, HeLa, 24 h): 102000 nM
IC50 (Toxoplasma gondii [7]; Toxoplasma gondii, HeLa, 24 h): 88000 nM

N#CSCCOc1ccc(Oc2ccccc2)cc1
EC50 (Toxoplasma gondii [3]): 4800 nM
EC50 (Vero): 82600 nM

CCCCCCCCC[S+]([O-])CC(P(=O)(O)O)P(=O)(O)O (configuration not stated)
IC50 [4]: 56 nM

SPIRAMYCIN
Ratio IC50 [6]: 0.72
IC50 (HeLa; hela): 189000 nM
IC50 (Toxoplasma gondii [7]; hela): 262000 nM

CCCCCCCCCC[S+]([O-])CC(P(=O)(O)O)P(=O)(O)O (configuration not stated)
IC50 [4]: > 10000 nM

N[C@@H]1[C@H]2CN(c3nc4c(cc3F)c(=O)c(C(=O)O)cn4-c3ccc(F)cc3F)C[C@@H]12 [TROVAFLOXACIN]
survival at 10 mg/kg (Toxoplasma gondii [5]): 90%

CCCc1ccc(Oc2ccc([N+](=O)[O-])cc2Cl)c(O)c1
IC50 (Toxoplasma gondii [1]): 6000 nM
IC50 [2]: < 20 nM

C[C@@H](Oc1cc(-c2cnn(C3CCNCC3)c2)cnc1N)c1c(Cl)ccc(F)c1Cl [CRIZOTINIB]
IC50 (Toxoplasma gondii [3]): 4000 nM

C[C@H]1[C@H](C)CC[C@]2(C(=O)O)CC[C@]3(C)C(=CC[C@@H]4[C@@]5(C)C/C(=C/c6cn(-c7ccccc7I)nn6)C(=O)C(C)(C)[C@H]5CC[C@]43C)[C@H]12
selectivity ratio [6]: 0.84
IC50 (HeLa; Homo sapiens, HeLa, 24 h): 230000 nM
IC50 (Toxoplasma gondii [7]; Toxoplasma gondii, HeLa, 24 h): 274000 nM

CCCCCCCCCNCC(P(=O)(O)O)P(=O)(O)O
IC50 [4]: 440 nM

Oc1ccc(Oc2ccc(Cl)cc2O)c(Cl)c1
IC50 (Toxoplasma gondii [1]): 3100 nM
IC50 [2]: 3 nM
